Experimental data: patent US7521414B2, “Polyol macrolide antitumor-antibiotics from the marine actinomycete strain CNQ140” (priority 2003, dated 2009)
Values after ≈ are worked out from the molar mass of the structure shown.

Experiments:
Type in all cases: cell-based
[1] = tested on: vancomycin-resistant Enterococcus faecium (VREF); assay: antibiotic activity (MIC) against VREF
From the text: (§1) As shown by the data in Table 1 below the invention therapeutic compounds have both anticancer and antibiotic activity, as illustrated in tests against HCT-116 human colon adenocarcinoma cancer cells (HCT-116); methicillin resistant Staphylococcus aureus (MRSA); and vancomycin-resistant Enterococcus faecium (VREF):
(§2) As shown by the data in Table 1 below the invention therapeutic compounds have both anticancer and antibiotic activity, as illustrated in tests against HCT-116 colon cancer cells (HCT-116); methicillin resistant Staphylococcus aureus (MRSA); and vancomycin-resistant Enterococcus faecium (VREF).

[2] = tested on: HCT-116 human colon adenocarcinoma cancer cells; assay: anticancer activity against HCT-116 colon cancer cell line; settings: for growth inhibition against the cancer cell line HCT-116 human colon carcinoma: in words
Protocol: For extraction of compounds from the CNQ140 actinomycete, the following protocol was used. Pre-washed XAD-7 resin (20 g) was added to 1 liter of culture and mixed for 1 hour. The contents were collected by filtration, washed with deionized water (1 liter) and eluted with acetone (250 ml). The extraction liquid from each successive extraction step (as shown in FIG. 1) was tested for anticancer activity (IC50) against HCT-116 colon cancer cell line. […] A second extraction step using C-18 reverse phase HPLC and a solvent of 65% MeCN in water yielded four distinct compounds with activity against the colon cancer cell line. […] The chemical structures of these compounds appear below:
as §1
Pre-washed XAD-7 resin (20 g) was added to 1 liter of culture and mixed for 1 hour. The contents were collected by filtration, washed with deionized water (1 liter) and eluted with acetone (250 ml). The extraction liquid from each successive extraction step (as shown in FIG. 1) was tested for anti-cancer activity (IC50) against HCT-116 colon cancer cell line. […] A second chromatographic purification step for fraction CNQ140-3, using C-18 reverse phase HPLC and 65% MeCN in water, yielded four distinct CNQ140 macrolide polyol-polyene compounds with activity against the colon cancer cell line: […]

all 60 cell lines = assay: National Cancer Institute's 60 cancer cell line in vitro cytotoxicity assay
From the text: Compounds CNQ140.996a, CNQ140.996b, and CNQ140.996c were examined in the National Cancer Institute's 60 cancer cell line, in vitro, cytotoxicity assay. The following cytoxicity data were derived for the invention compounds: […]

[3] = tested on: methicillin resistant Staphylococcus aureus (MRSA); assay: antibiotic activity (MIC) against MRSA
From the text: as §1, §2

Row | SMILES | VREF (MIC microgm/ml) [1] | IC50 ([2]; Homo sapiens, HCT-116, HCT-116 cells, read-out: HCT-116 (IC50 microgm/ml)) | growth inhibition against the cancer cell line HCT-116 human colon carcinoma [2] | GI50 (all 60 cell lines; average over NCI 60 cell lines, read-out: Average GI50 against all 60 cell lines) | tissue type selectivity (all 60 cell lines; most sensitive: 6 of the 8 melanoma cancer types (LOX IMVI, M14, SK-MEL-2, SK-MEL-5, UACC-257, UACC-62)) | MRSA (MIC microgm/ml) [3] | HCT-116 (IC50 microgm/ml) ([2]; HCT-116 cells)
1 | CCC(O)CC1CC(O)C/C=C/[C@@H](O)C[C@@H](O)C/C(C)=C/C=C/C=C/C=C\c2cccc(O)c2C(=O)OC(CC(C)O)CC(O)C/C=C/[C@@H](O)C[C@@H](O)C/C(C)=C/C=C/C=C/C=C\c2cccc(O)c2C(=O)O1 (stereo partly shown) [CNQ140.996c] | 0.25 microgm/ml | 2.6 µg/mL (≈ 2.57 µM) | showed growth inhibition | 5.1 nM | significant tissue type selectivity | 0.25 microgm/ml | 
2 | CCC(O)CC1CC(O)C/C=C/[C@@H](O)C[C@@H](O)C/C(C)=C/C=C/C=C/C=C\c2cccc(O)c2C(=O)OC(CC(C)O)CC(O)C/C=C/[C@@H](O)C[C@@H](O)C/C(C)=C/C=C/C=C/C=C\c2cccc(O)c2C(=O)O1 (stereo partly shown) [CNQ140.1010] | 0.25 microgm/ml |  | showed growth inhibition |  |  | 0.25 microgm/ml | 3.1 microgm/ml
